The target in one data set is T1, beta-Tryptase (Homo sapiens, UniProt Q15661).
T1 construct: host or cells: yeast cells
Description: beta-Tryptase inhibition, chromogenic enzyme assay (S2366 substrate). The data set is classed as biochemical. The note with it: activity of parent drug against beta-Tryptase; Ki calculated from IC50. An excerpt:
Inhibition of this catalytic activity may be measured by the in vitro enzyme assay and the cellular assay.
Tryptase inhibition activity is confirmed using either isolated human lung tryptase or recombinant human beta tryptase expressed in yeast cells. Essentially equivalent results are obtained using isolated native enzyme or the expressed enzyme. The assay procedure employs a 96 well microplate (Costar 3590) using L-pyroglutamyl-L-prolyl-L-arginine-para-nitroanilide (S2366: Quadratech) as substrate (essentially as described by McEuen et. al. Biochem Pharm, 1996, 52, pages 331-340). Assays are performed at room temperature using 0.5 mM substrate (2×Km) and the microplate is read on a microplate reader (Beckman Biomek Plate reader) at 405 nm wavelength.
Materials and Methods for Tryptase Primary Screen (Chromogenic Assay)
S2366 (Stock solutions of 2.5 mM).
Purified recombinant beta Tryptase Stocks of 310 μg/mL. […]
The protocol is essentially the same as above except that the compound is added in duplicates at the following final concentrations: 0.01, 0.03, 0.1, 0.3, 1, 3, 10 μM (All dilutions carried out manually). […] From the IC50 value, the Ki can be calculated using the following formula: Ki=IC50/(1+[Substrate]/Km).

Data set [1] can be described thus: Rat plasma stability (incubation in rat plasma, LC-MS/MS). The data set is classed as in vitro ADME. Conditions: 100 ng/mL, 37° C. On the procedure:
The rat plasma stability of Example 1 was tested by incubation of the compound in rat plasma at 100 ng/mL followed by LC-MS/MS bioanalysis to measure remaining parent compound relative to the time zero condition (no incubation). Concentrations of 1 remaining at 1 and 4 hr after incubation at 37° C. were 19% and 0%, indicating 1 was very unstable under these conditions. Since 1 was designed as a prodrug, plasma instability is a desirable attribute.

Counter-ions that a name gives are not always drawn.

Broadly, the Ki is a measure of affinity in units of concentration, obtained from inhibition or displacement.

T1 sequence (Q15661 31-275): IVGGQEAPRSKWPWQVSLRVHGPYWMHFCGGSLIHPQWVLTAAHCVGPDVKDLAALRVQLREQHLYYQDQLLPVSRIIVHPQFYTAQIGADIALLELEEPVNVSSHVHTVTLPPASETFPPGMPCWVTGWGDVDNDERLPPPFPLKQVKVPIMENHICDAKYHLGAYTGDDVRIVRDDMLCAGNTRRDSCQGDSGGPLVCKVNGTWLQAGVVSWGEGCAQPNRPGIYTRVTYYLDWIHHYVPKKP

As to `COCCn1cc(C(=O)N2CCC(c3cc(CN)ccc3F)CC2)c2c(C(=O)N3CCOCC3)cccc21` [Parent of 1, [4-(5-Aminomethyl-2-fluoro-phenyl)-piperidin-1-yl]-[1-(2-methoxy-ethyl)-4-(morpholine-4-carbonyl)-1H-indol-3-yl]-methanone hydrochloride], the Ki on beta-Tryptase is 0.029 µM.

Take `COCCn1cc(C(=O)N2CCC(c3cc(CN)ccc3F)CC2)c2c(OC(F)(F)F)ccc(F)c21` [Parent of 4, [4-(5-aminomethyl-2-fluoro-phenyl)-piperidin-1-yl]-[7-fluoro-1-(2-methoxy-ethyl)-4-trifluoromethoxy-1H-indol-3-yl]-methanone hydrochloride]: the Ki at beta-Tryptase was 0.038 µM.

For `COCCn1cc(C(=O)N2CCC(c3cc(CNC(=O)CNC(=O)[C@@H](N)C(C)C)ccc3F)CC2)c2c(C(=O)N3CCOCC3)cccc21.Cl` [Example 1, (S)-2-Amino-N-[(4-fluoro-3-{1-[1-(2-methoxy-ethyl)-4-(morpholine-4-carbonyl)-1H-indole-3-carbonyl]-piperidin-4-yl}-benzylcarbamoyl)-methyl]-3-methyl-butyramide hydrochloride], the “Rat plasma stability (in words)” value in data set [1] is “very unstable”. Besides, the “Concentration remaining relative to time zero” value in data set [1] (1 hr incubation) is 19%; in data set [1] (4 hr incubation) it was 0%.

These data come from patent US8710080B2, “Prodrugs of [4 [4-(5-Aminomethyl-2-fluoro-phenyl)-piperidin-1-yl]-(1H-pyrrolo-pyridin-yl)-methanones and synthesis thereof” (Sanofi, priority 2009, dated 2014).
